According to patent US20260091141A1, “GENE EDITING METHODS, SYSTEMS, AND COMPOSITIONS FOR TREATING SPINAL MUSCULAR ATROPHY” (The Broad Institute, Inc., priority 2023, published 2026):

Tests used:
SMN protein [1] = assay: SMN protein levels in Δ7SMA mESCs by Western blot, normalized to histone H3; format: cell-based, mouse
From the text: Precise deletions are defined as those that remove ≥4 nt of ISS-N1 including ≥4 nt of the 3′-hnRNP A1/A2 domain. […] Precise deletions are defined as those that enable the addition of five or more C-terminal amino acids to SMNΔ7 (SMNΔ7mod) to restore protein stability. […] The observed fraction of precise deletions, splice acceptor (SA) deletions, and other indels are shown. […] FIG. 1I provides stacked bar charts showing SMN2 splice variants following editing with C-nuc and C-CBE, as measured by high-throughput sequencing of mRNA transcripts amplified with exon 6 and polyA-primers. Splicing activity of exon 7 spliced and unspliced sub-fractions is shown. Asterisks indicate *≤0.05. **≤0.01, and ***≤0.005.
(§1) Risdiplam doses of 1.0, 0.5, 0.25, or 0.1 μM were used (shown from left to right in the graph). […] The asterisk indicates p<0.05 by Welch's two-tailed t-test. […] UG=unrelated guide; NT=no treatment.
(§2) UG-unrelated guide; NT=no treatment.

SMN2 transcript = assay: SMN2 / exon 7 mRNA transcript levels in Δ7SMA mESCs; format: cell-based, mouse
Method: as §1, §2

SMN2 exon 7 splicing = SMN2 exon 7 splicing by RT-PCR (exons 6 to 8) and automated electrophoresis in Δ7SMA mESCs; format: cell-based, mouse
Method: To assess whether nuclease-mediated editing of ISS-N1 improved exon 7 splicing, reverse-transcription PCR (RT-PCR) of SMN2 was performed from exons 6 to 8, and SMNΔ7 and full-length SMN products were quantified by automated electrophoresis (FIG. 1C).
For Δ7SMA mESCs nusinersen experiments, cells were transfected with 20 nM of fully 2′-O-methoxyethyl (MOE)-modified ASO (5′-[…]-3′) (SEQ ID NO: 469) on a phosphorothioate backbone (TriLink), using Lipofectamine 3000 (ThermoFisher Scientific). After 24 hours media was replaced every other day with fresh mESC+2i media. For splicing rescue by risdiplam, mESC media was supplemented with 0.1-1 μM of risdiplam (RG7916, Selleck Chemicals LLC) in DMSO, as indicated. Cells were harvested at the indicated timepoints.
mRNA was isolated from […] mESCs with the RNeasy mini kit (Qiagen), and reverse transcription was performed using SuperScript IV (ThermoFisher) according to the manufacturer's protocols. For targeted SMN2 qPCR and splice product quantitation by automated electrophoresis, reverse transcription was performed with random hexamers. Splicing inclusion of SMN2 exon 7 was quantified by automated electrophoresis using Tape Station (Agilent). For unbiased SMN2 splice product analysis by high-throughput sequencing, reverse transcription was performed using a custom oligo-dT primer with a Read 2 Illumina sequencing stub. […]

SMN protein [2] = assay: Western blot of SMN protein in Δ7SMA mESCs; format: cell-based, mouse; conditions: normalized to histone H3
Method: Cells harvested for western blot were washed with ice-cold PBS and incubated at 4° C. for 30 min while rocking in RIPA lysis buffer (ThermoFisher) supplemented with 1 mM PMSF (ThermoFisher) and complete EDTA-free protease inhibitor cocktail (Roche). Lysates were clarified by centrifugation at 12,000 rpm at 4° C. for 20 min. Lysates were normalized using BCA (Pierce BCA Protein Assay Kit) and combined with 4× Laemelli buffer (BioRad) and DTT (ThermoFisher) at a final concentration of 1 mM. 10 μg of reduced protein were loaded per gel lane, and transfer was performed with an iBlot 2 dry blotting system (ThermoFisher) using the following program: 20V for 1 min, then 23 V for 4 min, then 25 V for 2 min, for a total transfer time of 7 minutes. Blocking was performed at room temperature for 60 minutes with block buffer: 1% BSA in TBST (150 mM NaCl, 0.5% Tween-20, 50 mM Tris-Cl, pH 7.5).
Membranes were then incubated in primary antibody diluted in block buffer for 2 hours at room temperature. After a washing, secondary antibodies diluted in TBST were added and incubated for 1 hour at room temperature. Membranes were washed again and imaged using a LI-COR Odyssey. Wash steps were 3×5-minute washes in TBST. […]

SMN2 mRNA = assay: RT-qPCR of SMN2 mRNA abundance in Δ7SMA mESCs; format: cell-based, mouse
Method: To investigate how exon 8 SA disruption affects SMN2 transcripts, reverse transcription quantitative PCR (RT-qPCR) was performed to measure the abundance of SMN2 mRNA in treated and control Δ7SMA mESCs. The terminal sequence of SMN2, including intron 7 and the 3′ untranslated region (UTR) of exon 8, encode negative regulators of gene expression and mRNA transcript stability^21,71,72. Alternative splicing at the terminus of SMN2 therefore may result in increased SMN protein levels. […]
To investigate whether risdiplam and nusinersen treatment of Δ7SMA mESCs affect SMN2 transcript abundance, RT-qPCR was performed, and SMN2 mRNA levels were quantified in treated and genome edited cells (FIG. 7G). […] In contrast, a 1.8-fold reduction of SMN2 mRNA was detected 48 hours after nusinersen treatment relative to untreated Δ7SMA mESCs (Welch's two-tailed t-test p<0.005) that explains the relative reduction in SMN protein levels compared to the base editing approach (FIG. 2G).
mRNA was isolated from […] mESCs with the RNeasy mini kit (Qiagen), and reverse transcription was performed using SuperScript IV (ThermoFisher) according to the manufacturer's protocols. For targeted SMN2 qPCR and splice product quantitation by automated electrophoresis, reverse transcription was performed with random hexamers. […]

Δ7SMA mice = assay: Electrophysiological measurements (CMAP, MUNE) in Δ7SMA mice; format: in vivo, mouse; conditions: PND12, 2.5×10^13 vg/kg Zolgensma, 0.1 mg/kg risdiplam IP daily
Method: Compound muscle action potential (CMAP) amplitude and motor unit number estimation (MUNE) from the gastrocnemius muscle of treated animals was performed to assess loss of motor neuron functional integrity, a key feature of SMA and preclinical SMA models^131. […] MUNE were reduced by 50% in untreated Δ7SMA animals compared to heterozygous mice. […] In contrast, little or no improvement in MUNE was observed following Zolgensma or 0.1 mg/kg risdiplam administration (50% and 75% relative to heterozygotes respectively, Kruskal-Wallis test p>0.6). […] Thus, neonatal ICV injection of AAV9-ABE measurably rescues SMA pathophysiology of spinal motor neurons.
Compound muscle action potential (CMAP) and motor unit number estimate (MUNE) measurements were performed as previously described^178. Briefly, at PND12 the right sciatic nerve was stimulated with a pair of insulated 28-gauge monopolar needles (Teca, Oxford Instruments Medical, NY) placed in proximity to the sciatic nerve in the proximal hind limb.
Recording electrodes consisted of a pair of fine ring wire electrodes (Alpine Biomed, Skovlunde, Denmark). […]
For MUNE, an incremental stimulus technique similar to a previously described procedure was used^178. […] The peak-to-peak amplitude of each individual incremental response was calculated by subtracting the amplitude of the prior response. […]

SMN protein [3] = conditions: patient tissues; cited from earlier work
SMN protein [4] = conditions: SMA patients; cited from earlier work
DNA = conditions: SpCas9 mutation relative to SEQ ID NO: 209; UniProtKB Q99ZW2 entry; cited from earlier work

Compound | SMN protein levels, increase compared to Δ7SMA mESCs (SMN protein [1]) [fold] | effect on SMN2 transcript levels (SMN2 transcript) | exon 7 splicing (SMN2 exon 7 splicing) [%] | increase in SMN protein levels relative to untreated (SMN protein [2]) [fold] | increase in SMN2 transcripts relative to untreated cells (SMN2 mRNA) [fold] | MUNE relative to heterozygotes (Δ7SMA mice) [%] | increase of SMN protein levels (SMN protein [3]) [fold] | increase of SMN protein levels in patient tissues (SMN protein [4]) [fold] | Function/Characteristic (as reported) (DNA)
Cc1cn2nc(-c3cc(=O)n4cc(N5CCNC6(CC6)C5)ccc4n3)cc(C)c2n1 [risdiplam] | 9.5 | interfered with the endogenous regulation of SMN transcript levels | 89±4.3 | 9.1 | 1.6 | 75 | ~2 | ~2 | –
H840A: SpCas9 mutation relative to SEQ ID NO: 209 | – | – | – | – | – | – | – | – | Nickase mutant which cleaves the non-
